Measurements as given in ChEMBL document CHEMBL1201862, “PubChem BioAssay data set” (2004).
Calls of active or inactive are those of the source.

How the values were obtained:
[1] = molecular target: T1, Corticotropin-releasing factor receptor 2/Corticotropin-releasing factor-binding protein (Homo sapiens, UniProt P24387+Q13324); assay: activators of CRF receptor 2 with binding protein – uHTS hits, confirmation (AID 602473); type: functional; conditions: read-out: EC50_Mean
T1 sequence (Q13324 whole entry): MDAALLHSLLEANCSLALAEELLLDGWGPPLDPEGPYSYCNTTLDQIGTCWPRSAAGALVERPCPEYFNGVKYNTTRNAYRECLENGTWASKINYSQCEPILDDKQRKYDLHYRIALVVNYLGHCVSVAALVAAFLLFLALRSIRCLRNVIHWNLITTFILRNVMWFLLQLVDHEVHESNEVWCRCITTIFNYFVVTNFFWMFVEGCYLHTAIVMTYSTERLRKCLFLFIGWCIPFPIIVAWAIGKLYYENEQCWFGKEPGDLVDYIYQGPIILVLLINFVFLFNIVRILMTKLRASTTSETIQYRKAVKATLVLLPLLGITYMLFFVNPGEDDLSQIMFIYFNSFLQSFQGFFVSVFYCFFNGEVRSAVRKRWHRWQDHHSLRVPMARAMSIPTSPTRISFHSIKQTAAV
T1 sequence (P24387 whole entry): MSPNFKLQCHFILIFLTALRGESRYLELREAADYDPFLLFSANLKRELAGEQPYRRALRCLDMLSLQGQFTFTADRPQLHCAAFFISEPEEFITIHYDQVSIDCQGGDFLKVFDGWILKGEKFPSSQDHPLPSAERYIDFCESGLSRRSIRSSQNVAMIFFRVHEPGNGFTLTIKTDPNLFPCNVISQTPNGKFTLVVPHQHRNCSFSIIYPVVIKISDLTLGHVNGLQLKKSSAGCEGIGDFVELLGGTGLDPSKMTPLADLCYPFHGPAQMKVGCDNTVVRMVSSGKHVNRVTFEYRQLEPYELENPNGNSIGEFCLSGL

Vero = Vero cell cytotoxicity, cytotoxicity control for flavivirus capping enzyme inhibitors (AID 588742); type: functional; conditions: Chlorocebus sabaeus
Genome polyprotein = Genome polyprotein (dengue virus type 2, UniProt P29990); assay: Dengue-2 NS5 methyltransferase inhibitors, primary screen, biochemical, confirmation dose response (AID 588689); type: functional
[2] = molecular target: T2, Short transient receptor potential channel 4 (Mus musculus, UniProt Q9QUQ5); assay: mouse TRPC4 channel inhibitors, dose response, cell-based, HEK293 TRPC4/mu-opioid, Fluo-4 calcium (AID 434942); type: functional;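 note: potency of inhibitors blocking the TRPC4 calcium response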
T2 sequence (Q9QUQ5 whole entry): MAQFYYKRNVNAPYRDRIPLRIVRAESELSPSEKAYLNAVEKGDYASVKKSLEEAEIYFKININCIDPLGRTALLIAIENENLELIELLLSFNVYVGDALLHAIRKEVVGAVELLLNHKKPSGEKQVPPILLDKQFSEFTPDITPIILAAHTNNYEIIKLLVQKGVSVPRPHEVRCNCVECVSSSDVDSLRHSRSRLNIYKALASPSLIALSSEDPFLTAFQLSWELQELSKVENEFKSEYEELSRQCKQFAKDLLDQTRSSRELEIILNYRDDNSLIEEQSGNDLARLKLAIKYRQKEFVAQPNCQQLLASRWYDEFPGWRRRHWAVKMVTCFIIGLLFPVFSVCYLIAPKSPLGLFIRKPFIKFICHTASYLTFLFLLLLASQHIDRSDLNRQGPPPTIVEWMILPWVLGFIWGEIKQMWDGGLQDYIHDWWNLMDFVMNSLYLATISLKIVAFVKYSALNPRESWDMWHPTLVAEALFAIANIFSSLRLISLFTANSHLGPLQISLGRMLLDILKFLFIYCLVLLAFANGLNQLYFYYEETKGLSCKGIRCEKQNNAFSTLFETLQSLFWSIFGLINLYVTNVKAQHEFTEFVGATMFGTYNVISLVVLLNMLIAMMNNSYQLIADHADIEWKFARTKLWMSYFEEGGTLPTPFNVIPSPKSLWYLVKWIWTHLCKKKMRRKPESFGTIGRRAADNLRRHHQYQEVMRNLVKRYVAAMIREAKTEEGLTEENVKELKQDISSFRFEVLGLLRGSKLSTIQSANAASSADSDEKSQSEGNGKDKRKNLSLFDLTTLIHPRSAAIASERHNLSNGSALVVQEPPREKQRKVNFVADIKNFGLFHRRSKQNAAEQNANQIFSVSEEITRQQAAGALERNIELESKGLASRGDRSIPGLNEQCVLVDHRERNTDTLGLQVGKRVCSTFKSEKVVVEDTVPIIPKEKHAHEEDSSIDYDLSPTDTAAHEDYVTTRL

[3] = molecular target: T1, Corticotropin-releasing factor receptor 2/Corticotropin-releasing factor-binding protein; assay: Dose Response confirmation of uHTS hits for small molecule antagonists of the CRF-binding protein and CRF-R2 receptor complex.; type: functional; conditions: read-out: IC50_Mean
[4] = CRF-BP/CRF-R2 complex antagonists, dose response, cell-based, uHTS hits, 384-well (AID 651639); type: functional, Homo sapiens; conditions: read-out: IC50_Mean
Aminopeptidase N = molecular target: T3, Aminopeptidase N (Plasmodium falciparum FcB1/Columbia, UniProt O96935); assay: P. falciparum M1AAP inhibitors, biochemical, fluorogenic H-Leu-NHMec substrate, 1536-well (AID 1445); parameters: species or system Plasmodium falciparum 3D7, 3D7
T3 sequence (O96935 whole entry): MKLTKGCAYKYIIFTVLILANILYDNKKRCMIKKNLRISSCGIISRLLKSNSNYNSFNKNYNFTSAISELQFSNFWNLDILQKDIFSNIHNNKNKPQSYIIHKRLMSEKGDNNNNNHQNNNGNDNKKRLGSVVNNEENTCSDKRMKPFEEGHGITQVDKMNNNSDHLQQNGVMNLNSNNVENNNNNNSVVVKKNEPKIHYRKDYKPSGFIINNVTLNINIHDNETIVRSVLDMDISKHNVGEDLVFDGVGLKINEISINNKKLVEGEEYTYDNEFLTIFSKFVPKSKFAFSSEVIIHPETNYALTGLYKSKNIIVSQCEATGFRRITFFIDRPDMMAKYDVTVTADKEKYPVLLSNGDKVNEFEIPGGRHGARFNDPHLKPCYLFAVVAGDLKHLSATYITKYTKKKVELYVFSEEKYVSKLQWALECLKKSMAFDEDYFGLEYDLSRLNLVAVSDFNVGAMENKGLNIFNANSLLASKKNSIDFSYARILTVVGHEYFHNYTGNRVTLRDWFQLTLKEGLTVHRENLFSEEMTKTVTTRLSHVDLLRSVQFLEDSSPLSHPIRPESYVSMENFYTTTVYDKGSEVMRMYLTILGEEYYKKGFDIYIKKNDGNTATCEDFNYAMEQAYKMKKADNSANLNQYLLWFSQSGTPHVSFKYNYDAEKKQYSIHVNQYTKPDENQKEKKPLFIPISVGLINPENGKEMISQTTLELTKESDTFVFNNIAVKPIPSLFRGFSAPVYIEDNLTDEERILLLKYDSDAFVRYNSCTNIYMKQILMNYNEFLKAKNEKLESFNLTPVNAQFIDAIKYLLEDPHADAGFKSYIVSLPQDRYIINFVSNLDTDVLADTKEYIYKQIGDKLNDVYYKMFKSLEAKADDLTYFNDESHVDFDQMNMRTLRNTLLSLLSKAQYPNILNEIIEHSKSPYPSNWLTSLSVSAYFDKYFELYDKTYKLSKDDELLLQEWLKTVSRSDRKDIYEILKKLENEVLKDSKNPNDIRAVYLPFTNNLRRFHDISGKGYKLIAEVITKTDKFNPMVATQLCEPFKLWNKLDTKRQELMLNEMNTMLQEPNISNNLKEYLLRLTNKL

[5] = molecular target: T4, ATP-dependent translocase ABCB1 (Homo sapiens, UniProt P08183); assay: ABCB1 efflux inhibitor potency, dose response, Jurkat-DNR cells, JC-1, flow cytometry, set 2 (AID 504569); type: functional; conditions: read-out: EC50_MICROM_;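 note: potency of pump inhibitors that raise cellular JC-1 green fluorescence up to the nicardipine level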
[6] = molecular target: T4, ATP-dependent translocase ABCB1; assay: ABCG2 efflux pump inhibitor potency, dose response, Ig-MXP3 cells, JC-1, flow cytometry, set 2 (AID 504566); type: functional; conditions: read-out: EC50_MICROM_;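 note: flow cytometry median green fluorescence of retained JC-1 dye; potency of efflux pump inhibition measured as rising substrate retention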
[7] = molecular target: T5, Oxysterols receptor LXR-beta (Homo sapiens, UniProt P55055); type: functional, cell-based;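 note: Cell-based luminescence dose-response assay of agonist activity at LXR, run as a confirmatory counterscreen to a daf-12 agonist screen; HEK293 cells with Gal4-LXR fusion and GAL4-driven luciferase reporter; agonist potency from rising luciferase signal of a Gal4-LXR reporter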
T5 sequence (P55055 whole entry): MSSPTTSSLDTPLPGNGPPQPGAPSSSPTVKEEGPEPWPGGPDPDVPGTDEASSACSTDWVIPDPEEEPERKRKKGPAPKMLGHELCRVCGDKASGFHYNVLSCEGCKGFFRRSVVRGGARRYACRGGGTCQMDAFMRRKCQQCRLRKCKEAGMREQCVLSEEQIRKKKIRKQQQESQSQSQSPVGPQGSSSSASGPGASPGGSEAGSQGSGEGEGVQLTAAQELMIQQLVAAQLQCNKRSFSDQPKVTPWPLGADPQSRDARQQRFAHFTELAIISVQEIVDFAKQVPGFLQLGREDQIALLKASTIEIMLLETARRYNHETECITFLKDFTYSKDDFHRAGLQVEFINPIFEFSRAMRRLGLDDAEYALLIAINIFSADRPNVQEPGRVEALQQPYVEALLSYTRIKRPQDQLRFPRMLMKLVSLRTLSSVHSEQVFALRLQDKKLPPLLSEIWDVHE

Protein Tat = molecular target: T6, Protein Tat (Human immunodeficiency virus type 1 group M subtype B (isolate HXB2)(HIV-1), UniProt P04608); type: functional;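 note: tat binding to TAR RNA read out by fluorescence polarization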
T6 sequence (P04608 whole entry): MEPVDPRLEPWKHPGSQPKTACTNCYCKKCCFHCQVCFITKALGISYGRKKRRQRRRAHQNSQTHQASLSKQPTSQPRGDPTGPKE

[8] = HepG2 cell cytotoxicity, dose response, cytotoxicity control, plate reader, cherry-pick, antagonist series (AID 743416); type: functional, cell-based
[9] = A549 cell cytotoxicity, dose response, cytotoxicity control, plate reader, cherry-pick, antagonist series (AID 743412); type: functional, cell-based
Protein skinhead-1 = molecular target: T7, Protein skinhead-1 (Caenorhabditis elegans, UniProt P34707); type: functional
T7 sequence (P34707 whole entry): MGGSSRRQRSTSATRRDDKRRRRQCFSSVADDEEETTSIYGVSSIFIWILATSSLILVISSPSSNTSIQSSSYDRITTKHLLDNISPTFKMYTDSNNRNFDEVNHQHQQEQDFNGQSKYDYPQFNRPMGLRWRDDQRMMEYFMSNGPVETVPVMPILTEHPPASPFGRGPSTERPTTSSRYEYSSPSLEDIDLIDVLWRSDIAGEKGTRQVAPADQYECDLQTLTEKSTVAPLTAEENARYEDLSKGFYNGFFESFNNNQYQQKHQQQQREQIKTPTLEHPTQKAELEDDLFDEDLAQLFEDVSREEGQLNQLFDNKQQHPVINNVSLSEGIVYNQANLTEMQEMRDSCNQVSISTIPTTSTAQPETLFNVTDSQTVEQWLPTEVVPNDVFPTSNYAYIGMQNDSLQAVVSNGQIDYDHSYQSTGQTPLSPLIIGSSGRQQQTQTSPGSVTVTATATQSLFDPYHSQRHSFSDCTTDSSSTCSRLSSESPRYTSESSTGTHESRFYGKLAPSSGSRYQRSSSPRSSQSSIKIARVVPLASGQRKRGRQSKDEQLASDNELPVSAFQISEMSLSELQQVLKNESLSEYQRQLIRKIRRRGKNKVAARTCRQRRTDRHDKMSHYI

[10] = LGR2 antagonists, dose response, cell-based, HEK293, CRE-luciferase reporter, cherry pick, set 2 (AID 743343); type: functional;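 note: transfected cells were stimulated with diluted bursicon conditioned medium after compound addition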
HEK293 = assay: inhibitors of LMP1-driven NF-kB reporter, dose response, cell-based, HEK293, luciferase, cherry-pick (AID 588343); type: functional; conditions: Homo sapiens
[11] = molecular target: Luciferin 4-monooxygenase (Photinus pyralis, UniProt P08659); assay: Counter Screen for Luciferase-based Assay Positives. [Related pubchem assays: 620, 618, 411 ]
[12] = MC4R antagonists, dose response, counter-screen for LGR2 antagonist project, cell-based, plate reader, cherry pick (AID 743444); type: functional;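 note: transfected HEK 293 cells stimulated with alpha-MSH peptide; potency of inhibitors of the alpha-MSH evoked signal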
HT-1080 = assay: cytotoxicity in HT1080 fibrosarcoma cells, cell-based, fluorescence readout (AID 620); type: functional; conditions: Homo sapiens

T4 sequence (P08183 whole entry): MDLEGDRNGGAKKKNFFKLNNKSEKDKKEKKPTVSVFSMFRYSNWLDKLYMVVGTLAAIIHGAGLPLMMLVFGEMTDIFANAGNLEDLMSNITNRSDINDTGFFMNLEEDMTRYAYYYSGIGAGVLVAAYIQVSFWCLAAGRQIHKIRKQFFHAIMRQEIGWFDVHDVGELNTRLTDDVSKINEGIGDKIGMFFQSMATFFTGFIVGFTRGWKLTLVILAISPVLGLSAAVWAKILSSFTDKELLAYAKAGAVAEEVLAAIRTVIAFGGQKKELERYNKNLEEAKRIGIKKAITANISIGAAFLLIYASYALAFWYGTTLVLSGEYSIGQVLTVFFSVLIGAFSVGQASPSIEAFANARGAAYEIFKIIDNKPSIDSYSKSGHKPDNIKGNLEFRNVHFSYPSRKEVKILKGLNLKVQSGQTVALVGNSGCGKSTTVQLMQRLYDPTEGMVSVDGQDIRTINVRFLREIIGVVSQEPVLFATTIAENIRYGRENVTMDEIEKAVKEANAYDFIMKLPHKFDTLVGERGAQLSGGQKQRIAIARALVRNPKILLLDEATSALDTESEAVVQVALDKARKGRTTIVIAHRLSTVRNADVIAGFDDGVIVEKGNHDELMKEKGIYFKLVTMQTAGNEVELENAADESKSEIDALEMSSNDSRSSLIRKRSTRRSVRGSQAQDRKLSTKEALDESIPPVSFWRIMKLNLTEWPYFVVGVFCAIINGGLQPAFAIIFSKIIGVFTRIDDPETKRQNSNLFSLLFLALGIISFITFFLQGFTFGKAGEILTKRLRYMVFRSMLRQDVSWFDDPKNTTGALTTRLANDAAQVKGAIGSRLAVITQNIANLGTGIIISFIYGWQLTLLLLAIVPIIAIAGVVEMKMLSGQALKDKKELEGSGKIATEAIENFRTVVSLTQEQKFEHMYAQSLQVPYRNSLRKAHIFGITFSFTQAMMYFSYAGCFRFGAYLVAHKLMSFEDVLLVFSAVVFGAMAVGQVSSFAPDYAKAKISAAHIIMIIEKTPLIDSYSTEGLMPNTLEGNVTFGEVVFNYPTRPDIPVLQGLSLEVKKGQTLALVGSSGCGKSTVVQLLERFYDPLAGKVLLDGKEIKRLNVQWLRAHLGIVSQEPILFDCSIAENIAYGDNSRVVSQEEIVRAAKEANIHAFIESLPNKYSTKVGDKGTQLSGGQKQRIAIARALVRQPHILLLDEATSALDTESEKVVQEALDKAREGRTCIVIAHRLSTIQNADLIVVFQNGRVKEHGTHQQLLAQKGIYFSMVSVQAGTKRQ
Sequence of Genome polyprotein (P29990 2492-3391 limits assumed): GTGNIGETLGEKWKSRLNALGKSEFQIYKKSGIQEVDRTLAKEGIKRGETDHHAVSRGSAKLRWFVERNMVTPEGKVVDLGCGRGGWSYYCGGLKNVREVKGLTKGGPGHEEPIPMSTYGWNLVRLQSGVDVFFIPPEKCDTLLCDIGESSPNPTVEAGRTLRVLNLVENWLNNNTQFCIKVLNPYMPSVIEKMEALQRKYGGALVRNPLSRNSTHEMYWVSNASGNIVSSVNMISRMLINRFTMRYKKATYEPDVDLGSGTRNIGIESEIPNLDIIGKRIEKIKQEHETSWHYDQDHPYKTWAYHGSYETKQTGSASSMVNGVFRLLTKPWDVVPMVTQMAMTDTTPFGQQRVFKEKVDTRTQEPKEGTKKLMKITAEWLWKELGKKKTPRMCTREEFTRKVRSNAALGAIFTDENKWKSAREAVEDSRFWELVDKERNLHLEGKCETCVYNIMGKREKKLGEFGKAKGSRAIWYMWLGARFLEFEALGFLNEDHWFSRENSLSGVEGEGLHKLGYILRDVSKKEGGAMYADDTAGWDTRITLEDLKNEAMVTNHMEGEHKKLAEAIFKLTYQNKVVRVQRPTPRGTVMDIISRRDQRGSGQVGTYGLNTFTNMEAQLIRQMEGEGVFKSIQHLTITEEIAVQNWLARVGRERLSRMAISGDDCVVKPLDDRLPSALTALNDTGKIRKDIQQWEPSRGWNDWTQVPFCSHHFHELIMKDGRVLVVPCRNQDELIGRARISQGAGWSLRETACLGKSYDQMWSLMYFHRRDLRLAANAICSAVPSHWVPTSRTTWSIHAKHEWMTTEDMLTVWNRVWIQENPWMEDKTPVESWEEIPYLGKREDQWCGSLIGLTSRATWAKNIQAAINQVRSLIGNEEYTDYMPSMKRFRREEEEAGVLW
Sequence of Luciferin 4-monooxygenase (P08659 whole entry): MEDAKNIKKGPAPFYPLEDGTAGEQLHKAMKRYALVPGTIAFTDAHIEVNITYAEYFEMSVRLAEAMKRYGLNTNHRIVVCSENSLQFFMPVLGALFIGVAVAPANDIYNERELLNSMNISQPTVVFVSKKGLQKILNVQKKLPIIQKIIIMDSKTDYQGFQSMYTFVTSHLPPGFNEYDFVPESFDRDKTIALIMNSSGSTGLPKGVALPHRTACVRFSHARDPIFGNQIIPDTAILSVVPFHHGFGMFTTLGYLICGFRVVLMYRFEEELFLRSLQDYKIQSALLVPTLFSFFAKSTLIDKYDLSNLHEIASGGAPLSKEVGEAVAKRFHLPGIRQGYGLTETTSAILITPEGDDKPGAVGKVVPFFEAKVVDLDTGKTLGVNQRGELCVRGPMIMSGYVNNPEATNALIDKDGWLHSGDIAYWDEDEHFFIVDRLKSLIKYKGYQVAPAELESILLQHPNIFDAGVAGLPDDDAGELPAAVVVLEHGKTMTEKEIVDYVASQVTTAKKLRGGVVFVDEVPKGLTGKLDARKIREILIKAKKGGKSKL

COc1cc(/C=C2\SC(=S)N(NS(=O)(=O)c3ccc(C)cc3)C2=O)cc(OC)c1OC
EC50 [1]: > 53 µM (inactive) | CC50 (Vero): > 40 µM (active) | IC50 (Genome polyprotein): 37.4 µM (active) | EC50 [2]: 6.68 µM (active) | IC50 [3]: 12.6 µM (active) | IC50 [4]: 10.4 µM (active) | IC50 (Aminopeptidase N): 33.1 µM (active)

COc1ccc(-c2cc3nc(C)c(C)c(N4CCN(C(=O)c5ccsc5)CC4)n3n2)cc1
EC50 [5]: 3.83 µM (active) | EC50 [6]: 1.79 µM (active)

Cc1nc2cc(-c3cccc(Cl)c3)nn2c(N2CCN(C(=O)c3ccco3)CC2)c1C
EC50 [5]: 7.87 µM (active) | EC50 [6]: 3.41 µM (active)

Brc1ccccc1C1NC(c2ccccc2)=NO1 (centres undefined)
EC50 [7]: > 67.5 µM (inactive) | EC50 (cells): > 67.5 µM (inactive)

O=c1cc(O)n(-c2ccc(F)cc2)c(=S)[nH]1
IC50 (Protein Tat): > 100 µM (active)

Brc1ccc(-c2nc(-c3ccccn3)no2)o1
AC50 [8]: > 52 µM (inactive) | AC50 [9]: > 52 µM (inactive) | IC50 (Protein skinhead-1): 72.1 µM (inactive) | EC50 [7]: > 67.5 µM (inactive) | AC50 [10]: 2.92 µM (active) | AC50 (HEK293): 2.33 µM (active) | EC50 [11]: 2.58 µM (active) | EC50 (cells): > 67.5 µM (inactive) | AC50 [12]: 3.84 µM (active) | EC50 (HT-1080): > 50 µM (not active)
